Data on 24 compounds can be found in PubChem BioAssay AID814 (SRMLSC, 2007).

This assay relates to cell imaging, HER kinase expression, mean fluorescence. The experiment in a line: HER kinase expression suppression, imaging readout – mean fluorescence, total cell number, dose response (AID 814).
[1] abbreviates: measured here: total cell number (cytotoxicity).

The source made the active and inactive calls. How the calls were made is not given here.

A word on the EC50: it is the midpoint of the concentration-response curve. As for `O=S1(=O)C=C(Sc2nc3ccccc3s2)c2ccccc21`, the EC50 was 5.41 µM. In addition, under setting [1], the concentration for a half-maximal effect (EC50) was determined as 7.61 µM.
Taken in the same sequence, the figures for `O=S1(=O)C=C(Sc2nnc(-c3ccccc3)o2)c2ccccc21` were 8.72 µM and over 10 µM.
Taken in the same sequence, the figures for `Cc1ccc(-c2csc3ncnc(Sc4nnc(CN5CCCCCC5=O)o4)c23)cc1` were 8.06 µM and over 10 µM.
In the case of `O=C(CSc1nc2cc(Cl)ccc2s1)c1ccco1`, the EC50 is > 10 µM (inactive). The compound also yielded an EC50 under setting [1] of over 10 µM.
The matching figures for `CN(C)CC(C(=O)c1ccccc1)c1ccccc1` (stereo not drawn): 6.95 µM and over 10 µM.
Taken in the same sequence, the figures for `Cn1c(C(C#N)C(=O)c2ccco2)nc2ccccc21` (stereo not drawn) were 8.31 µM and over 10 µM.
The matching figures for `Nc1nnnn1/N=C/C(Br)=C/c1ccccc1`: 4.69 µM and over 10 µM.
For the compound `CCN1/C(=C/C(=O)c2ccco2)Sc2ccccc21`, the 50% effective concentration (EC50) is 8.32 µM. Also, under setting [1], the EC50 is over 10 µM.
The matching figures for `Cc1nn2c(-c3ccco3)nnc2c2ccccc12`: 8.3 µM and over 10 µM.
Consider `O=S(=O)(CC(CN1CCCC1)N1CCCC1)c1ccc2ccccc2c1` (stereo not drawn), for which the half-maximal effective concentration (EC50) is 7.75 µM. For the same compound, the 50% effective concentration (EC50) under setting [1] is over 10 µM.
`COc1ccc(C(=O)C(CN2CCCC2)c2ccccc2)cc1` (stereo not drawn): the EC50 is 8.27 µM. Under setting [1], the half-maximal effective concentration (EC50) was over 10 µM.
Regarding `Cc1nc(NC(=O)c2ccco2)sc1C(=O)Nc1ccc(Br)cc1`, the concentration giving a half-maximal response (EC50) was 8.41 µM. Moreover, the concentration for a half-maximal effect (EC50) under setting [1] was over 10 µM.
Taken in the same sequence, the figures for `O=S1(=O)C=C(Sc2nc3cc(Cl)ccc3o2)c2ccccc21` were > 10 µM (inactive) and over 10 µM.
The matching figures for `CC(=O)c1sc2nc(-c3cccs3)cc(C(F)(F)F)c2c1N`: > 10 µM (inactive) and over 10 µM.
The matching figures for `CS(=O)(=O)c1nc(-c2ccco2)cc(C(F)(F)F)n1`: > 10 µM (inactive) and over 10 µM.
`CS(=O)(=O)c1nc(-c2ccccc2)cc(C(F)(F)F)n1`: the EC50 is > 10 µM (inactive). Further, the EC50 under setting [1] was over 10 µM.
Regarding `COC(=O)c1sccc1NC(=O)c1ccc(Cl)s1`, the EC50 was 6.49 µM. The compound also came in with an EC50 under setting [1] of over 10 µM.
Regarding `CCCCS(=O)(=O)/C=C\C=C/S(=O)(=O)CCCC`, the EC50 was 8.14 µM. Besides, the 50% effective concentration (EC50) under setting [1] was determined as 7.52 µM.
For the compound `CCCn1c(NC(=O)c2ccco2)nc2ccccc21`, the concentration for a half-maximal effect (EC50) was 9.35 µM. For the same compound, the 50% effective concentration (EC50) under setting [1] was over 10 µM.
The matching figures for `O=S(=O)(C/C(=C/CO)S(=O)(=O)c1ccccc1)c1ccccc1`: > 10 µM (inactive) and over 10 µM.
The matching figures for `CS(=O)(=O)c1nc(-c2cccs2)cc(C(F)(F)F)n1`: > 10 µM (inactive) and over 10 µM.
The matching figures for `Cc1nc2nc(-c3ccco3)nn2c(C)c1Cl`: 9.52 µM and over 10 µM.
Regarding `CSC1=N/C(=C\C=C\c2cccs2)C(=O)S1`, the EC50 is > 10 µM (inactive). Under setting [1], this compound gave a half-maximal effective concentration (EC50) of over 10 µM.
Taken in the same sequence, the figures for `Cc1ccc(CNC(=O)c2cc3c(-c4ccc(Cl)cc4)nn(C)c3s2)o1` were > 10 µM (inactive) and over 10 µM.
